ChEMBL document CHEMBL4350982, “Multi-target design strategies for the improved treatment of Alzheimer's disease” (Eur J Med Chem, 2019)
pIC50: −log10 of the molar value. One block for each molecule: values may come before it.

Columns and labels:
Acetylcholinesterase [1] = target: T1, Acetylcholinesterase (Rattus norvegicus, UniProt P37136); assay: Inhibition of AChE from rat cortex by Ellman's method
T1 sequence (P37136 whole entry): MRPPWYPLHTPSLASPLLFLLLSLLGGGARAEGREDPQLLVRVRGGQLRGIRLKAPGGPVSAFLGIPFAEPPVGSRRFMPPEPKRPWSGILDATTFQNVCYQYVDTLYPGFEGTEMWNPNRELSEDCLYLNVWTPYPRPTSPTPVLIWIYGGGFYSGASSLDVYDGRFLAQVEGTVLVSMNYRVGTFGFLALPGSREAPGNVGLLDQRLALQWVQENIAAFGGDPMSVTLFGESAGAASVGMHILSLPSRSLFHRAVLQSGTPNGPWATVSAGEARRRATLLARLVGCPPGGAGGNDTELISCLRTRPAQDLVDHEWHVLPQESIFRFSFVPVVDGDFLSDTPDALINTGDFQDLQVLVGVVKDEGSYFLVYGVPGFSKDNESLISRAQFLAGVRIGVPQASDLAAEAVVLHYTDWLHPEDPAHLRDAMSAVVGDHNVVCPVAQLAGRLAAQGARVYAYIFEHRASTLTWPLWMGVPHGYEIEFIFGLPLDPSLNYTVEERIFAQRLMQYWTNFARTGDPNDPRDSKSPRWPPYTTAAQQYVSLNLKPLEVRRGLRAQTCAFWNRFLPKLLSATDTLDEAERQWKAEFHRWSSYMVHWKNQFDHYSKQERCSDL

Beta-secretase 1 [2] = target: T2, Beta-secretase 1 (Homo sapiens, UniProt P56817); assay: Inhibition of BACE-1 (unknown origin)
T2 sequence (P56817 whole entry): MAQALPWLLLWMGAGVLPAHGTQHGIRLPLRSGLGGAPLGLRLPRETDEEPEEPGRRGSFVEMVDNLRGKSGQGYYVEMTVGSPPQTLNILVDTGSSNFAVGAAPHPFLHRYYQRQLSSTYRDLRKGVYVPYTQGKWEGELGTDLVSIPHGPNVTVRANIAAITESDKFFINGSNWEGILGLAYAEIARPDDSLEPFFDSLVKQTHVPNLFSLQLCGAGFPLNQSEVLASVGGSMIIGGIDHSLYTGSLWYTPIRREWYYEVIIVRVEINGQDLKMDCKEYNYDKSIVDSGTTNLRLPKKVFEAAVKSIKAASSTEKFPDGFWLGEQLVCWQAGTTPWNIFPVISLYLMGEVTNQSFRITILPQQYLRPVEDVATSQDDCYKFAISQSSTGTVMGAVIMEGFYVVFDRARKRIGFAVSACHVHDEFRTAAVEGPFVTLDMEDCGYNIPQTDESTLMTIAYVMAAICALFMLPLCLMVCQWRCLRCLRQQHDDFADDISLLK

Acetylcholinesterase [3] = target: T3, Acetylcholinesterase (Homo sapiens, UniProt P22303); assay: Inhibition of AChE (unknown origin)
T3 sequence (P22303 whole entry): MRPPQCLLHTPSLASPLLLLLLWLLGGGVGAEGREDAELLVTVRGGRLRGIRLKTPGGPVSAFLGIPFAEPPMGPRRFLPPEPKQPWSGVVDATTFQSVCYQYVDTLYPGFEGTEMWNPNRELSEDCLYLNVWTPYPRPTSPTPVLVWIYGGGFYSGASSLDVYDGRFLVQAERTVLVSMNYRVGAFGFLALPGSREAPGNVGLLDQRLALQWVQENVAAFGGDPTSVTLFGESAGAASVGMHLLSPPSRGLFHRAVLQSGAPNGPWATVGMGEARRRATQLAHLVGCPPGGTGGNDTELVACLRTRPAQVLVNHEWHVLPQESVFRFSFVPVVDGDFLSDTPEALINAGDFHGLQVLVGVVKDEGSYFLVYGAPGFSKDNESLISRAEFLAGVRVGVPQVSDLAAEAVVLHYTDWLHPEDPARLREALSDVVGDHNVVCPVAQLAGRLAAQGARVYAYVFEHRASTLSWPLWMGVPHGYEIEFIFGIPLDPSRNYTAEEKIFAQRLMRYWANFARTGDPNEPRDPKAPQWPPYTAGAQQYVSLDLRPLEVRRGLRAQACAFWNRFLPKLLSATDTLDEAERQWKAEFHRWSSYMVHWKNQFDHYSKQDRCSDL

Acetylcholinesterase [4] = target: T3, Acetylcholinesterase; assay: Inhibition of recombinant human AChE using acetylthiocholine as substrate by UV-visible absorption method
Beta-secretase 1 [5] = target: T2, Beta-secretase 1; assay: Inhibition of BACE-1 (unknown origin) after 60 mins by FRET assay
Acetylcholinesterase [6] = target: T4, Acetylcholinesterase (Electrophorus electricus, UniProt O42275); assay: Inhibition of electric eel AChE using acetylthiocholine chloride as substrate preincubated for 15 mins followed by substrate addition
T4 sequence (O42275 whole entry): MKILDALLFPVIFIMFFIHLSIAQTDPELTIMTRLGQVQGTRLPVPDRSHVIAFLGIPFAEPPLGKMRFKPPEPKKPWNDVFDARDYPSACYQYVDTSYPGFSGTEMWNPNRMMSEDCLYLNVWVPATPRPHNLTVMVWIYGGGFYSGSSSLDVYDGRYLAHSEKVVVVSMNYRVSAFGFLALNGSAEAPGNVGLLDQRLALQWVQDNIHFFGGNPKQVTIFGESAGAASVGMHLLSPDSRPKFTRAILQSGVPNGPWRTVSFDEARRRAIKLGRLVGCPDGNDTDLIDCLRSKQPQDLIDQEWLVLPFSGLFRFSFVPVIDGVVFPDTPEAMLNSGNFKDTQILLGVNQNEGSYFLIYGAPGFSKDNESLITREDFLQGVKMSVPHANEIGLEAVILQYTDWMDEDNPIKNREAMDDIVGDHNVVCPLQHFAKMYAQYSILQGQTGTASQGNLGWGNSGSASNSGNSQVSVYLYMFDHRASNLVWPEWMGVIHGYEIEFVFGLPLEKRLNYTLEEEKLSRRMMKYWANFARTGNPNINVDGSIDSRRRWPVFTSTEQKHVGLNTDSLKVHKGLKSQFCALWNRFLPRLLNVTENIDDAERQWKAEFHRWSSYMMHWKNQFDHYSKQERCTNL

Cholinesterase = Cholinesterase (Equus caballus, UniProt P81908); assay: Inhibition of equine serum BChE using butyrylthiocholine iodide as substrate preincubated for 10 mins followed by substrate addition by Ellman's method
[7] = target: Glutamate [NMDA] receptor; assay: Displacement of [3H]-ifenprodil from NMDA receptor (unknown origin) by scintillation counting method; assay type: protein-complex assay, Homo sapiens
[8] = target: Glutamate [NMDA] receptor; assay: Displacement of [3H]-MK-801 from NMDA receptor (unknown origin) by scintillation counting method; assay type: protein-complex assay, Homo sapiens
Acetylcholinesterase [9] = target: T4, Acetylcholinesterase; assay: Inhibition of electric eel AChE using acetylthiocholine as substrate measured for 3.2 mins by Ellman's method
[10] = target: Amyloid-beta precursor protein (Homo sapiens) (UniProt P05067); assay: Inhibition of beta amyloid (unknown origin) self-induced aggregation at 10 uM relative to control
Sequence of Amyloid-beta precursor protein (Homo sapiens) (P05067 whole entry): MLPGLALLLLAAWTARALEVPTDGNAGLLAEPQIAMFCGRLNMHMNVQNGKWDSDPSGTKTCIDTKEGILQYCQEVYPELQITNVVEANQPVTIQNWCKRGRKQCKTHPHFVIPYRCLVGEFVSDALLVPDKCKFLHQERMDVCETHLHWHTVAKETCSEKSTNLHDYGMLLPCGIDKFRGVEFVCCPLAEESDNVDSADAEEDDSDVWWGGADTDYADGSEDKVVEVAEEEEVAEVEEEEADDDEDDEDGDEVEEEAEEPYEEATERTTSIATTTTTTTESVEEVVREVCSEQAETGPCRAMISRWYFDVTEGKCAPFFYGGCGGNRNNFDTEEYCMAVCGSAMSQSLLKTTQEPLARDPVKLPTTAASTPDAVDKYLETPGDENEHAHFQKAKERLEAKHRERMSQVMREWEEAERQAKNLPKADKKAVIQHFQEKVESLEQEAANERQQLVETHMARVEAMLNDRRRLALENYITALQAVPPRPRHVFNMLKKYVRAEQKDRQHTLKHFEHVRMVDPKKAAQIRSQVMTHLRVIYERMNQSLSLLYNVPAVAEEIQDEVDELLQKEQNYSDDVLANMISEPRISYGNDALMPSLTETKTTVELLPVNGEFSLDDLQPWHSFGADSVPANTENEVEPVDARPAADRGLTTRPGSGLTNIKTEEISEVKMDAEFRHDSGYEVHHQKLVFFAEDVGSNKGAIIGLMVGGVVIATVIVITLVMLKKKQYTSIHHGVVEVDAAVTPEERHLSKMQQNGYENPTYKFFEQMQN

[11] = target: Amyloid-beta precursor protein (Homo sapiens) (UniProt P05067); assay: Inhibition of beta amyloid (unknown origin) self-induced aggregation relative to control; details: concentration not given here
[12] = target: Glutamate [NMDA] receptor; assay: Inhibition of NMDA receptor (unknown origin); assay type: protein-complex assay, Homo sapiens
[13] = Half life in Alzheimer's disease patient at 2 mg/ml, po; assay type: ADME; details: human, in vivo
[14] = Oral bioavailability in Alzheimer's disease patient at 2 mg/ml; assay type: ADME, organism-based; details: human, in vivo
[15] = Drug excretion in Alzheimer's disease patient urine at 2 mg/ml, po; assay type: ADME, tissue-based; details: human, read-out: Drug excretion
[16] = target: cGMP-dependent 3',5'-cyclic phosphodiesterase (Homo sapiens, UniProt O00408); assay: Inhibition of PDE2A1 (unknown origin) by immobilized metal ion affinity-based fluorescence polarization
[17] = target: cGMP-specific 3',5'-cyclic phosphodiesterase (Homo sapiens, UniProt O76074); assay: Inhibition of PDE5A1 (unknown origin) by immobilized metal ion affinity-based fluorescence polarization
Butyrylcholinesterase = Butyrylcholinesterase (Rattus norvegicus, UniProt Q9JKC1); assay: Inhibition of BuChE from rat serum by Ellman's method
Sequence of Butyrylcholinesterase (Q9JKC1 whole entry): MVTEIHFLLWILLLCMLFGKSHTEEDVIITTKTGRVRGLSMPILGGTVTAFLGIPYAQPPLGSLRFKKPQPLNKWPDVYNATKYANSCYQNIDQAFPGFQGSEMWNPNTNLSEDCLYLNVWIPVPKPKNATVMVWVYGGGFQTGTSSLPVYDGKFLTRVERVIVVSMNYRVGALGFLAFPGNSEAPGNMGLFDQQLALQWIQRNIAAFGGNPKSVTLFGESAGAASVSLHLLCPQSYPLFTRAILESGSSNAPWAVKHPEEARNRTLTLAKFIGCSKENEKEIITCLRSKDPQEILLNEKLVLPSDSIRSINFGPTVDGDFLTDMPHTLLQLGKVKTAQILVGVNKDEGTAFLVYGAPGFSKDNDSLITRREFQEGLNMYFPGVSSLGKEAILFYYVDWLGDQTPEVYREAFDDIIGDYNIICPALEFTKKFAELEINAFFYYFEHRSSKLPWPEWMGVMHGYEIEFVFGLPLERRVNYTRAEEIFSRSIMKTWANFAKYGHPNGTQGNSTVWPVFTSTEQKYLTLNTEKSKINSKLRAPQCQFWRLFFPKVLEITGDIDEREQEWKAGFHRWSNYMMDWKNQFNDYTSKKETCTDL

[18] = Inhibition of PDE4D3 (unknown origin) by immobilized metal ion affinity-based fluorescence polarization; parameters: species or system Homo sapiens
[19] = target: cGMP-inhibited 3',5'-cyclic phosphodiesterase 3A (Homo sapiens, UniProt Q14432); assay: Inhibition of PDE3A (unknown origin) by immobilized metal ion affinity-based fluorescence polarization
[20] = target: Cone cGMP-specific 3',5'-cyclic phosphodiesterase subunit alpha' (Homo sapiens, UniProt P51160); assay: Inhibition of PDE6C (unknown origin) by immobilized metal ion affinity-based fluorescence polarization
Sequence of Cone cGMP-specific 3',5'-cyclic phosphodiesterase subunit alpha' (P51160 whole entry): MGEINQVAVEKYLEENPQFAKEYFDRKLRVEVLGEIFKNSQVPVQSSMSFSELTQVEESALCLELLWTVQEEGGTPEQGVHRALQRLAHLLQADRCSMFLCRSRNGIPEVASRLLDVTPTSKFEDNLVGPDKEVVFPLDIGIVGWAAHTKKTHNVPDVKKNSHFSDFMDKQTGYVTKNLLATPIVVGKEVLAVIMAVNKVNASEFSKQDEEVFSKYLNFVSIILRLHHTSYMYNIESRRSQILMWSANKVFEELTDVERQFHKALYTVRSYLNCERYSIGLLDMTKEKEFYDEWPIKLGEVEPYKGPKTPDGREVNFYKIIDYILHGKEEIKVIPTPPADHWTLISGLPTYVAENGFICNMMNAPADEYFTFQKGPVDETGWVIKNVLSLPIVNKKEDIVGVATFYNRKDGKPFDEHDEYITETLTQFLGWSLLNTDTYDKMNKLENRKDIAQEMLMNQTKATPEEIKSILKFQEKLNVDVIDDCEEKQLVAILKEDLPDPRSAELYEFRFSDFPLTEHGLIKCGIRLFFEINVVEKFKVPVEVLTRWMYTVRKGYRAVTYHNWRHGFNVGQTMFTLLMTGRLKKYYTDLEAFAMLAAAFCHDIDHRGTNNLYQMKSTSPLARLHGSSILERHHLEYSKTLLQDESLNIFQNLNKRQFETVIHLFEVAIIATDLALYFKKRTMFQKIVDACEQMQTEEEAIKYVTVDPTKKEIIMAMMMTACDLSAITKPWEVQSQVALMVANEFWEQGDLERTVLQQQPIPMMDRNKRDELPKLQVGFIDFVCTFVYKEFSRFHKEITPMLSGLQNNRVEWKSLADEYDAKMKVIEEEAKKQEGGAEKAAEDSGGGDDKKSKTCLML

[21] = target: High affinity 3',5'-cyclic-AMP phosphodiesterase 7A (Homo sapiens, UniProt Q13946); assay: Inhibition of PDE7A (unknown origin) by immobilized metal ion affinity-based fluorescence polarization
Sequence of High affinity 3',5'-cyclic-AMP phosphodiesterase 7A (Q13946 whole entry): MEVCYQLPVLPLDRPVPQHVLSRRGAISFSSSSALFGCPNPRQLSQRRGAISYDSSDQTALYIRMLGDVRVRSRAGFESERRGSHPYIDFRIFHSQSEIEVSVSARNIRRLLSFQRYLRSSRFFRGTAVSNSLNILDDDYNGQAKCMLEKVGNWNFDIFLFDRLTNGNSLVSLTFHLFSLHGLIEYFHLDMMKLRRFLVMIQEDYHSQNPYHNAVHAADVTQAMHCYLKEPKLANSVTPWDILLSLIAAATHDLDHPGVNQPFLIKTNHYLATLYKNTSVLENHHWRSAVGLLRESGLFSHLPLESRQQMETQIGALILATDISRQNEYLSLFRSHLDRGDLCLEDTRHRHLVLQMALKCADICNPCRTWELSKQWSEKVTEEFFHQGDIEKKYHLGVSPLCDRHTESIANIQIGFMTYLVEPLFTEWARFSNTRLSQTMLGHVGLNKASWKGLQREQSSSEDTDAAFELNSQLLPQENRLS

[22] = target: High affinity cGMP-specific 3',5'-cyclic phosphodiesterase 9A (Homo sapiens, UniProt O76083); assay: Inhibition of PDE9A2 (unknown origin) by immobilized metal ion affinity-based fluorescence polarization
Sequence of High affinity cGMP-specific 3',5'-cyclic phosphodiesterase 9A (O76083 whole entry): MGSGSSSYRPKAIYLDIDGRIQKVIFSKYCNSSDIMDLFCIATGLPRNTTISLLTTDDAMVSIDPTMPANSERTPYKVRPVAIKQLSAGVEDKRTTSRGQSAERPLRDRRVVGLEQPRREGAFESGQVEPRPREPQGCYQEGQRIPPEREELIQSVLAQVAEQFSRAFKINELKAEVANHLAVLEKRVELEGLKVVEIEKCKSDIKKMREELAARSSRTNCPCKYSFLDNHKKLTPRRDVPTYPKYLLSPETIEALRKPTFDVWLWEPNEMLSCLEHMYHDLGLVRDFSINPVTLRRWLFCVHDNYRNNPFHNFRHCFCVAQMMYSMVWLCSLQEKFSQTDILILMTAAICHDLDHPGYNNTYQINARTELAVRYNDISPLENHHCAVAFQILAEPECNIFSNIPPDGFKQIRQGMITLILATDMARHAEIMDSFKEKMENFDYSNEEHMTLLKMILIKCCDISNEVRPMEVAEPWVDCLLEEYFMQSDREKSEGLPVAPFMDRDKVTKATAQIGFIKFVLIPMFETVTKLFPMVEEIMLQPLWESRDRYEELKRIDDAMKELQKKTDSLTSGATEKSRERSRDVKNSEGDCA

Acetylcholinesterase [23] = target: T3, Acetylcholinesterase; assay: Inhibition of recombinant human AChE
Beta-secretase 1 [24] = target: T2, Beta-secretase 1; assay: Inhibition of recombinant human BACE-1
CHO-K1 = assay: Cytotoxicity against CHOK1 cells assessed as reduction in cell viability by MTT assay; assay type: cell-based; details: Cricetulus griseus
HepG2 = assay: Cytotoxicity against human HepG2 cells assessed as reduction in cell viability by MTT assay; assay type: cell-based
[25] = target: T5, Amine oxidase [flavin-containing] A (Homo sapiens, UniProt P21397); assay: Irreversible inhibition of MAOA (unknown origin)
T5 sequence (P21397 whole entry): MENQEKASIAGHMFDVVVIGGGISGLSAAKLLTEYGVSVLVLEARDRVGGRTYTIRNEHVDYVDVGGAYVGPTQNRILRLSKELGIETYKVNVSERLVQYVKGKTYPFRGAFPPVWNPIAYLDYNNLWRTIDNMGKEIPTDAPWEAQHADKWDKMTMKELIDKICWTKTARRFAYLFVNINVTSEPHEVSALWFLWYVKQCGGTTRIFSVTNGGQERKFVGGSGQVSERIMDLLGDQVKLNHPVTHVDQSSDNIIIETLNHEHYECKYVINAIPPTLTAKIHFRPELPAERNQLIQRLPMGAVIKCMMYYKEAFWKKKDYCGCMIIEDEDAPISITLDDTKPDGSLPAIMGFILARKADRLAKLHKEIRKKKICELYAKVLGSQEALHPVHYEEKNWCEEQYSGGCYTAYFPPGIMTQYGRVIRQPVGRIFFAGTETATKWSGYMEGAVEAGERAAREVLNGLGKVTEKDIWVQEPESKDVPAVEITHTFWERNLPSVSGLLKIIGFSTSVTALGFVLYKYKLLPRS

[26] = target: T6, Amine oxidase [flavin-containing] B (Homo sapiens, UniProt P27338); assay: Irreversible inhibition of MAOB (unknown origin)
T6 sequence (P27338 whole entry): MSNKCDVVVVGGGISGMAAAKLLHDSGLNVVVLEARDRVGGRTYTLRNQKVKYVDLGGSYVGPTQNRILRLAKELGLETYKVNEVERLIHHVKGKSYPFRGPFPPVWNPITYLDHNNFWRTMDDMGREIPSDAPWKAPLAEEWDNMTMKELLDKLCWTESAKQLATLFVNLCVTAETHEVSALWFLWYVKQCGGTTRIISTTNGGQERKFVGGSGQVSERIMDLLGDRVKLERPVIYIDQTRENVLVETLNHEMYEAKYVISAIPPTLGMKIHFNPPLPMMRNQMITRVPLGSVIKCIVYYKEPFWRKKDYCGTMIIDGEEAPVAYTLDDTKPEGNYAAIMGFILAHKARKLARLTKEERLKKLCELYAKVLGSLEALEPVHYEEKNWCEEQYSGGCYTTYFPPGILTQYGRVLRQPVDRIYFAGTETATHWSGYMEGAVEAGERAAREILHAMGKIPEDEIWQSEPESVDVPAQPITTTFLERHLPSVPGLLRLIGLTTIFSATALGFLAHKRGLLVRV

Beta-secretase 1 [27] = target: T2, Beta-secretase 1; assay: Irreversible inhibition of BACE-1 (unknown origin)
[28] = target: T5, Amine oxidase [flavin-containing] A; assay: Mixed type inhibition of MAOA (unknown origin)
[29] = target: T6, Amine oxidase [flavin-containing] B; assay: Mixed type inhibition of MAOB (unknown origin)
Acetylcholinesterase [30] = target: T3, Acetylcholinesterase; assay: Irreversible inhibition of AChE (unknown origin)

Compound: CN1CC(=O)N2[C@H](c3ccc4c(c3)OCO4)c3[nH]c4ccccc4c3C[C@@H]2C1=O
pIC50 (Acetylcholinesterase [1]): 4.58

Compound: OC(CNCc1cccc(OCc2ccccc2)c1)Cn1cc(Br)c2cc(Br)ccc21 (stereo not given)
pIC50 (Beta-secretase 1 [2]): 6.01
pIC50 (Acetylcholinesterase [3]): 5.04

Compound: COc1ccc(CNC(=O)C2CCN(C(=O)c3ccccc3)CC2)cc1OC
pIC50 (Acetylcholinesterase [4]): 8.39
pIC50 (Beta-secretase 1 [5]): 7.74

Compound: COc1ccc(/C=C2\COc3cc(OCCCN4CCCCC4)ccc3C2=O)cc1
pIC50 (Acetylcholinesterase [6]): 5.40

Compound: CCN1CCc2c(c3ccccc3n2CCC(=O)N2c3ccccc3Sc3ccccc32)C1
pIC50 (Cholinesterase): 6.28
pIC50 [7]: 4.87
pIC50 [8]: 4.84

Compound: Cc1cc(=O)oc2cc(OCCN3CCN(CC(=O)Nc4c5c(nc6ccccc46)CCCC5)CC3)ccc12
pIC50 (Acetylcholinesterase [9]): 4.04

Compound: C#CCN(C)Cc1cc2cc(OCCCC3CCN(Cc4ccccc4)CC3)ccc2n1C
inhibition [10]: 47.8%
pIC50 (Acetylcholinesterase [3]): 6.46

Compound: Cc1ccc2[nH]c3c(c2c1)CN(CCCCCN1CCc2[nH]c4ccc(C)cc4c2C1)CC3
inhibition [11]: 67%
pIC50 (Acetylcholinesterase [3]): 6.71
pIC50 [12]: 4.96

half-life [13]: 2.5 to 4.17 days
bioavailability [14]: 100%
dose excreted [15]: 48%
Compound: CC12CC3CC(C)(C1)CC(N)(C3)C2 [MEMANTINE]

Compound: O=C1[C@H]2Cc3c([nH]c4ccccc34)[C@@H](c3ccc4c(c3)OCO4)N2C(=O)CN1CCC1CCN(Cc2ccccc2)CC1
pIC50 (Acetylcholinesterase [1]): 7.49
pIC50 [16]: < 4.00
pIC50 [17]: 5.82
pIC50 (Butyrylcholinesterase): 5.41
pIC50 [18]: < 4.00
pIC50 [19]: < 4.00
pIC50 [20]: < 4.00
pIC50 [21]: < 4.00
pIC50 [22]: < 4.00

Compound: COc1ccc2[nH]c3nc4c(c(N)c3c2c1)CCCC4
pIC50 (Acetylcholinesterase [23]): 5.82
pIC50 (Beta-secretase 1 [24]): 5.62
pIC50 (CHO-K1): 5.26
pIC50 (HepG2): 5.91
pIC50 [25]: 6.31
pIC50 [26]: 4.27

pIC50 (Beta-secretase 1 [2]): 5.60
Compound: COc1cc(/C=C/C(O)=C/C(=O)/C=C/c2ccc(OCc3ccccc3)cc2)ccc1O

Compound: C#CCN(C)Cc1ccc(O)c2ncccc12
pIC50 (Beta-secretase 1 [27]): 5.80
pIC50 [28]: 4.24
pIC50 [29]: 5.82
pIC50 (Acetylcholinesterase [30]): 5.74
pIC50 [25]: 5.21
pIC50 [26]: 4.99
